Patent US20230332232A1, “COMPOSITIONS AND METHODS FOR DIAGNOSING AND TREATING A DYSTONIA” (Duke University, priority 2020, published 2023)

Tested on: wild-type (WT) murine embryonic fibroblasts (MEFs)
Assay: Untargeted LC/MS/MS proteomics of EVs from WT MEFs exposed 24 hours to drug, compared with untreated WT MEFs
Assay type: cell-based, mouse
Procedure: Methods for isolation and purification of exosomes and extracellular vesicles (EV) were extensively reviewed. Experiments were performed to arrive at a robust and reproducible protocol. The protocol used herein is that set forth in Théry et al, 2006, which is incorporated by reference for it teaching of this protocol. This protocol involves depleting serum-derived EVs from cell culture media by overnight ultracentrifugation and exchanging media for 1% FBS EV-depleted media. Media is then collected from cells following a 24-hour conditioning period and EVs are isolated by 18-hour ultracentrifugation at 100,000 g (FIG. 1A).
EVs were isolated from media of cultured murine embryonic fibroblasts (MEFs) prepared in-house according to protocols described by Xu 2005 from DYT1 knockin mice (Tor1a^delGAG/+) (Goodchild R E, et al. (2005) Neuron. 48:923-932) and littermate wild-type (WT) controls. The cultured MEFs from the DYT1 mice were exposed for 24 hours to Ritonavir (RTV) while the MEFs from WT mice were exposed to vehicle, ISRIB, or Salubrinal (SAL). The EVs isolated from these WT cells and DYT1 were characterized by untargeted proteomics and RNA-seq to identify differentially expressed proteins and RNAs as candidate biomarkers. Experimenter and Proteomics core staff were blinded to genotype of cell cultures throughout preparation and analysis phases. EV isolation was confirmed by Western immunoblot documenting presence of the exosomal marker (TSG101) and absence of the endoplasmic reticulum (ER) marker (CANX) (FIG. 1B (Cohort 1) and FIG. 1C (Cohort 2)).
Following the bicinchoninic acid assay (BCA) analysis and Western immunoblot of a portion of samples for QC, 11.6 μg-129.2 μg of EV protein lysates in RIPA buffer were sent to the Duke Proteomics and Metabolomics Shared Resource core facility for LC/MS/MS quantitative proteomic analysis. Samples were first normalized to 20 μg and spiked with undigested casein at a total of 40 fmol/μg, 80 fmol/μg, or 160 fmol/μg, then reduced with 10 mM dithiolthreitol for 30 minute at 80° C. and alkylated with 20 mM iodoacetamide for 30 minutes at room temperature. Next, the samples were supplemented with a final concentration of 1.2% phosphoric acid and 741 μL of S-Trap (Protifi) binding buffer (90% MeOH/100 mM […]). Proteins were trapped on the S-Trap, digested using 20 ng/μL sequencing grade trypsin (Promega) for 1 hour at 47° C., and eluted using 50 mM TEAB, followed by 0.2% FA, and lastly using 50% CAN/0.2% FA. All samples were then lyophilized to dryness and resuspended in 40 μL 1% TFA/2% acetonitrile containing 12.5 fmol/μL yeast alcohol dehydrogenase (ADH_YEAST). A QC Pool was created from 3 uL of each sample. All QC Pools were run periodically throughout the acquisition period.
Quantitative LC/MS/MS was performed on 2 μL of each sample, using a nanoAcquity UPLC system (Waters Corp) coupled to a Thermo Orbitrap Fusion Lumos high resolution accurate mass tandem mass spectrometer (Thermo) via a nanoelectrospray ionization source. Briefly, the sample was first trapped on a Symmetry C18 20 mm×180 μm trapping column (5 μL/min at 99.9/0.1 v/v water/acetonitrile), after which the analytical separation was performed using a 1.8 μm Acquity HSS T3 C18 75 μm×250 mm column (Waters Corp.) with a 90 minute linear gradient of 5% to 30% acetonitrile with 0.1% formic acid at a flow rate of 400 nanoliters/minute (nL/min) with a column temperature of 55° C. Data collection on the Fusion Lumos mass spectrometer was performed in a data-dependent acquisition (DDA) mode of acquisition with a r=120,000 (@ m/z 200) full MS scan from m/z 375-1500 with a target AGC value of 2e5 ions. MS/MS scans were acquired at Rapid scan rate (Ion Trap) with an AGC target of 5e3 ions and a max injection time of 100 ms. The total cycle time for MS and MS/MS scans was 2 seconds. A 20 second dynamic exclusion was employed to increase depth of coverage. The total analysis cycle time for each sample injection was approximately 2 hours. […]

[1] = EV protein P09528, Ferritin heavy chain

O=C(COc1ccc(Cl)cc1)NC1CCC(NC(=O)COc2ccc(Cl)cc2)CC1 (centres unmarked) [ISRIB]
ISRIB Direction Same as dE? (EV protein Akr1b1 (P45376)): yes
ISRIBvWT Z Score (EV protein Akr1b1 (P45376)): −0.22
ISRIB Direction Same as dE? (EV protein Aldh2 (P47738)): yes
ISRIBvWT Z Score (EV protein Aldh2 (P47738)): −7.25
ISRIBvWT Z Score (EV protein Cnn3 (Q9DAW9)): 2.76
ISRIB Direction Same as dE? (EV protein Cnot1 (Q6ZQ08)): yes
ISRIBvWT Z Score (EV protein Cnot1 (Q6ZQ08)): −2.56
ISRIB Direction Same as dE? (EV protein Col5a1 (Q88207)): yes
ISRIBvWT Z Score (EV protein Col5a1 (Q88207)): 0.06
ISRIB Direction Same as dE? (EV protein Copb2 (Q55029)): yes
ISRIBvWT Z Score (EV protein Copb2 (Q55029)): −1.11
ISRIBvWT Z Score (EV protein Cryab (P23927)): 0.39
ISRIBvWT Z Score (EV protein Cxadr (P97792)): 1.72
ISRIBvWT Z Score (EV protein D3YXG0): −2.25
ISRIB Direction Same as dE? (EV protein Dars (Q922B2)): yes
ISRIBvWT Z Score (EV protein Dars (Q922B2)): −1.13
ISRIB Direction Same as dE? (EV protein Dctn2 (Q99KJ8)): yes
ISRIBvWT Z Score (EV protein Dctn2 (Q99KJ8)): −0.53
ISRIB Direction Same as dE? (EV protein Ddx3x (Q62167)): yes
ISRIBvWT Z Score (EV protein Ddx3x (Q62167)): −1.08
ISRIB Direction Same as dE? (EV protein Ddx5 (Q61656)): yes
ISRIBvWT Z Score (EV protein Ddx5 (Q61656)): −0.92
ISRIB Direction Same as dE? (EV protein Ddx39b (Q9Z1N5)): yes
ISRIBvWT Z Score (EV protein Ddx39b (Q9Z1N5)): −1.12
ISRIB Direction Same as dE? (EV protein Dhx9 (Q70133)): yes
ISRIBvWT Z Score (EV protein Dhx9 (Q70133)): −1.27
ISRIB Direction Same as dE? (EV protein Dhx15 (Q35286)): yes
ISRIBvWT Z Score (EV protein Dhx15 (Q35286)): −1.19
ISRIBvWT Z Score (EV protein Esyt1 (Q3U7R1)): 0.18
ISRIB Direction Same as dE? (EV protein Exoc4 (Q35382)): yes
ISRIBvWT Z Score (EV protein Exoc4 (Q35382)): −1.51
ISRIBvWT Z Score (EV protein Fth1 P09528): −3.46
ISRIBvWT Z Score (EV protein Fus (P56959)): 0.85
ISRIBvWT Z Score (EV protein Gsto1 (Q09131)): 0.04
ISRIB Direction Same as dE? (EV protein Hist1h3a (P68433)): yes
ISRIBvWT Z Score (EV protein Hist1h3a (P68433)): −0.97
ISRIB Direction Same as dE? (EV protein Hnrnpf (Q9Z2X1)): yes
ISRIBvWT Z Score (EV protein Hnrnpf (Q9Z2X1)): −0.18
ISRIBvWT Z Score (EV protein Hnrnph1 (Q35737)): 2.47
ISRIB Direction Same as dE? (EV protein Idh2 (P54071)): yes
ISRIBvWT Z Score (EV protein Idh2 (P54071)): −2.01
ISRIBvWT Z Score (EV protein Impa1 (Q55023)): 1.73
ISRIBvWT Z Score (EV protein Ipo7 (Q9EPL8)): 0.30
ISRIB Direction Same as dE? (EV protein Ipo11 (Q8K2V6)): yes
ISRIBvWT Z Score (EV protein Ipo11 (Q8K2V6)): −1.97
ISRIBvWT Z Score (EV protein Itgb3 (Q54890)): 0.14
ISRIBvWT Z Score (EV protein Itm2b Q89051): −2.13
ISRIB Direction Same as dE? (EV protein Itpa (Q9D892)): yes
ISRIBvWT Z Score (EV protein Itpa (Q9D892)): −1.25
ISRIB Direction Same as dE? (EV protein Kpna4 (Q35343)): yes
ISRIBvWT Z Score (EV protein Kpna4 (Q35343)): −3.18
ISRIB Direction Same as dE? (EV protein Lipg (Q9WVG5)): yes
ISRIBvWT Z Score (EV protein Lipg (Q9WVG5)): −2.47
ISRIB Direction Same as dE? (EV protein Ltbp1 (Q8CG19)): yes
ISRIBvWT Z Score (EV protein Ltbp1 (Q8CG19)): 2.17
ISRIB Direction Same as dE? (EV protein Mcm2 (P97310)): yes
ISRIBvWT Z Score (EV protein Mcm2 (P97310)): −2.10
ISRIBvWT Z Score (EV protein Mdk (P12025)): 1.33
ISRIB Direction Same as dE? (EV protein Mtap (Q9CQ65)): yes
ISRIBvWT Z Score (EV protein Mtap (Q9CQ65)): −0.85
ISRIBvWT Z Score (EV protein Myo18a): 2.27
ISRIBvWT Z Score (EV protein Nrbp1 (Q99J45)): 0.18
ISRIBvWT Z Score (EV protein Otub1 (Q7TQ..)): 2.26
ISRIB Direction Same as dE? (EV protein Otub1 (Q7TQB)): yes
ISRIBvWT Z Score (EV protein Otub1 (Q7TQB)): −2.26
ISRIB Direction Same as dE? [1]: yes
ISRIBvWT Z Score [1]: −3.46
ISRIB Direction Same as dE? (EV protein P27612, Phospholipase A-2-activating protein): yes
